16 compounds from patent US20050282818A1, “Ubiquitin ligase inhibitors” (Rigel Pharmaceuticals, Inc., priority 2004, published 2005) can be followed below.

The target of one assay is T1, TRAF6/Uev1A/Ubc13 (Homo sapiens, UniProt Q9Y4K3).
T1 sequence (Q9Y4K3 1-522): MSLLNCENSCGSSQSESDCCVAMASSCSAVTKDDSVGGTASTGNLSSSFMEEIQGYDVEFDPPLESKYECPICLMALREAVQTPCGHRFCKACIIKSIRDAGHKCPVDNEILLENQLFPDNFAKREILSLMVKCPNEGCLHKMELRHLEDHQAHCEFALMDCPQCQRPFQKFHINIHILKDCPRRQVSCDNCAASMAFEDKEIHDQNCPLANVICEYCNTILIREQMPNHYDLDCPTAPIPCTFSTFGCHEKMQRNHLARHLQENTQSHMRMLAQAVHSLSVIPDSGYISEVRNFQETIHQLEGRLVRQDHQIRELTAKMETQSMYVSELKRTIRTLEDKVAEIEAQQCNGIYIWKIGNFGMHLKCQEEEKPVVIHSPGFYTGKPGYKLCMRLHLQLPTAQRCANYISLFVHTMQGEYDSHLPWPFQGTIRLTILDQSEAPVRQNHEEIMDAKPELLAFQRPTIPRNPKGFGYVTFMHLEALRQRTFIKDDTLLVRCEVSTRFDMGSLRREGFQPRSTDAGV
As to the kind of experiment: TRAF6/Uev1A/Ubc13 plate-based ubiquitin ligase assay. It counts as biochemical. The procedure, abridged:
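Ligase activity was read as luminescence from anti-Flag/HRP detection of Flag-ubiquitin bound to casein-blocked Ni-plates alongside His-ubiquitin after a 1 h room-temperature reaction. Buffer: 62.5 mM Tris pH 7.5, 6.25 mM MgCl2, 1.0 mM DTT, 2 μM ATP; E1, Uev1a/Ubc13 and TRAF6 added last to start. IC50s derived across compound concentrations.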

Assay [1] concerns ICAM-1 expression in A549 cells. The assay can be described thus: ICAM assay (IL-1 induced ICAM-1/CD54 expression in A549 cells). Format: cell-based, human. The text has this: The expression of intercellular adhesion molecule (ICAM)-1 in endothelial cells is pivotal in supporting lymphocyte migration across the vascular endothelium. TNF/IL-1 induces the NF-kB pathway in which NF-kB acts as a transcription factor and activation of NF-kB induces ICAM expression. IkB inhibits NF-KB by binding to it and retaining NF-kB in the cytoplasm. Upon cytokine stimulation, several signaling molecule including TRAF6, IKKs, and TAK1 are activated which lead to the phosphorylation of IkB. Phosphorylated IkB is then ubiquitinated by the SCF complex and degraded by proteasome, thereby releasing NF-kB to translocate into the nucleus. In the nucleus, NF-kB binds to DNA and activates transcription of various genes that are involved in inflammation, cell survival, and apoptosis. The ICAM assay is a primary assay for HTS as well as a cell based assay for TRAF6 inhibitors.
The following materials are used 96-well plates; F12K complete medium that includes 10% FBS and 1% P/S (penicillin/streptomycin); 1×PBS; 5 ug/ml IL-1, Human CD54 (CALTAG Laboratory, Cat#MHCD5400-4); anti-mouse-IgG (Jackson Lab, Cat#115-035 146); and A549 cells.
Procedure. 10,000 A549 cells/well were seeded in 100 μl F12K complete medium in a 96-well white plate. The seeded plate was incubate at 37° C. incubator in 5% CO2 overnight. After the overnight incubation, 4 μl of diluted test compound was added and incubated for 1 hour at 37° C. After the 1 hour incubation, 4 μl of 25 ng/ml IL-1 was added to each well and the cells were stimulated at 37° C. for 4 hours.
After stimulation, the cells were stained with CD54 (1:1000 diluted with medium) and anti-mouse IgG (1:1100 diluted with medium) for 1 hour. Subsequently, the medium was removed and each well was washed with 200 μl of PBS three times. Detection of activity was performed by addition of 100 μl/well of lumino substrate.

The next assay has as its system A549 cells. The assay can be described thus: Cell proliferation PAD assay, A549. The conditions noted are these: 48 hours. It counts as cell-based. In short, it runs like this:
(§1)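 Each line, seeded at 2,000 cells/well, received duplicate 6.3-fold compound dilutions (10 mM stock, diluted 500× into medium) one day after plating. Exposure lasted 48 h; fixed cells were DAPI-stained and photographed, and images were analysed for live, apoptotic and dead cell numbers.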

A further assay concerns H1299 cells. As to the kind of experiment: Cell proliferation PAD assay, H1299. The conditions noted are these: 48 hours. It counts as cell-based. In short, it runs like this:
as §1

The mark [2] stands for this setting: Homo sapiens, 6pt, read-out: A549 6pt.
The mark [3] stands for this setting: Homo sapiens, NCI-H1299, 6pt, read-out: H1299 6pt.
The mark [4] stands for this setting: Homo sapiens, 3pt, read-out: A549 3pt.
The mark [5] stands for this setting: Homo sapiens, NCI-H1299, 3pt, read-out: H1299 3pt.

Like-named read-outs stand apart in the source and are kept apart here.

Consider `O=S(=O)(c1ccc(Sc2cccc3cccnc23)c2nonc12)N1CCN(c2ccccc2)CC1` [compound 217, 8-({7-[(4-phenylpiperazin-1-yl)sulfonyl]-2,1,3-benzoxadiazol-4-yl}thio)quinoline], for which the IC50 at TRAF6/Uev1A/Ubc13 was 1 to 20 µM; in assay [1] (Homo sapiens, A549, ICAM assay), not below 20 µM; with A549 cells (setting [2]), 1 to 20 µM; in the assay on H1299 cells (setting [3]) it was 1 to 20 µM.

Take `O=S(=O)(c1c(N2CCC(Oc3ncccn3)CC2)ccc2nonc12)N1CCC(Oc2ncccn2)CC1` [compound 236, 5-[4-(1,3-pyrimidin-2-yloxy)piperidin-1-yl]-4-{[4-(1,3-pyrimidin-2-yloxy)piperidin-1-yl]sulfonyl}-2,1,3-benzoxadiazole]: the IC50 against TRAF6/Uev1A/Ubc13 is not below 20 µM; in assay [1] (Homo sapiens, A549, ICAM assay), not below 20 µM; in the assay with A549 cells (setting [4]), 1 to 20 µM; in the assay with H1299 cells (setting [5]) it was 1 to 20 µM.

`O=S(=O)(c1c(Cl)ccc2nonc12)N1CCC(Oc2ncccn2)CC1` [compound 234]: the IC50 at TRAF6/Uev1A/Ubc13 was not below 20 µM; in assay [1] (Homo sapiens, A549, ICAM assay), not below 20 µM; in the assay on A549 cells (setting [4]), 1 to 20 µM; in the assay on H1299 cells (setting [5]) it was 1 to 20 µM.

Turning to `O=S(=O)(c1c(Cl)ccc2nonc12)N1CCC(Oc2ccccc2C(F)(F)F)CC1` [compound 229, 5-chloro-4-({4-[2-(trifluoromethyl)phenoxy]piperidin-1-yl}sulfonyl)-2,1,3-benzoxadiazole], the IC50 on TRAF6/Uev1A/Ubc13 was 1 to 20 µM; in assay [1] (Homo sapiens, A549, ICAM assay), not below 20 µM; in the assay with A549 cells (setting [2]), 1 to 20 µM; in the assay with H1299 cells (setting [3]), less than 1 µM.

In the case of `O=[N+]([O-])c1ccc([S+]([O-])c2cccc3cccnc23)c2nonc12` (stereo not shown) [compound 291, 8-[(7-nitro-2,1,3-benzoxadiazol-4-yl)sulfinyl]quinoline], the IC50 on TRAF6/Uev1A/Ubc13 was 1 to 20 µM; in assay [1] (Homo sapiens, A549, ICAM assay), not below 20 µM; with A549 cells (setting [2]), less than 1 µM; in the assay on H1299 cells (setting [3]) it was less than 1 µM.

As for `O=S(=O)(c1ccc(Cl)c2nonc12)N1CCC(Oc2ncccn2)CC1` [compound 225, 4-chloro-7-{[4-(pyrimidin-2-yloxy)pipendin-1-yl]sulfonyl}-2,1,3-benzoxadiazole], the IC50 was not below 20 µM against TRAF6/Uev1A/Ubc13; not below 20 µM in assay [1] (ICAM assay); 1 to 20 µM with A549 cells (3pt, read-out: A549 3pt); 1 to 20 µM in the assay with H1299 cells (3pt, read-out: H1299 3pt).

Take `O=S(=O)(Nc1cccc(F)c1F)c1ccc(Cl)c2nonc12` [compound 271, 7-chloro-N-(2,3-difluorophenyl)-2,1,3-benzoxadiazole-4-sulfonamide]: the IC50 on TRAF6/Uev1A/Ubc13 is 1 to 20 µM; in assay [1] (Homo sapiens, A549, ICAM assay) it was not below 20 µM.

For the compound `O=S(=O)(Nc1cccc(F)c1F)c1ccc(F)c2nonc12` [compound 274, N-(2,3-difluorophenyl)-7-fluoro-2,1,3-benzoxadiazole-4-sulfonamide], the IC50 against TRAF6/Uev1A/Ubc13 is 1 to 20 µM; in assay [1] (Homo sapiens, A549, ICAM assay) it was not below 20 µM.

With `O=S(=O)(c1ccc(Cl)c2nonc12)N1CCN(CCOCCO)CC1` [compound 185, 2-(2-{4-[(7-chloro-2,1,3-benzoxadiazol-4-yl)sulfonyl]piperazin-1-yl}ethoxy)ethanol], the IC50 against TRAF6/Uev1A/Ubc13 was not below 20 µM; in assay [1] (Homo sapiens, A549, ICAM assay) it was not below 20 µM; in the assay on A549 cells (setting [2]), 1 to 20 µM; in the assay with H1299 cells (setting [3]) it was 1 to 20 µM.

On to `O=S(=O)(c1c(Cl)ccc2nonc12)N1CCN(c2ccc(Cl)c(C(F)(F)F)c2)CC1` [compound 182, 5-chloro-4-({4-[4-chloro-3-(trifluoromethyl)phenyl]piperazin-1-yl}sulfonyl)-2,1,3-benzoxadiazole], for which the IC50 was not below 20 µM at TRAF6/Uev1A/Ubc13; not below 20 µM in assay [1] (Homo sapiens, A549, ICAM assay); 1 to 20 µM in the assay on A549 cells (setting [2]); 1 to 20 µM in the assay with H1299 cells (setting [3]).

As for `CN1CCN(S(=O)(=O)c2ccc(Cl)c3nonc23)CC1` [compound 189, 4-chloro-7-[(4-methylpiperazin-1-yl)sulfonyl]-2,1,3-benzoxadiazole], the IC50 is not below 20 µM at TRAF6/Uev1A/Ubc13; not below 20 µM in assay [1] (Homo sapiens, A549, ICAM assay); 1 to 20 µM in the assay with A549 cells (setting [4]); 1 to 20 µM with H1299 cells (setting [5]).

In the case of `COC(=O)c1ccc(Nc2ccc3nonc3c2S(=O)(=O)Nc2ccc(C(=O)OC)cc2)cc1` [compound 10, methyl 4-{[(5-{[4-(methoxycarbonyl)phenyl]amino}-2,1,3-benzoxadiazol-4-yl)sulfonyl]amino}benzoate], the IC50 at TRAF6/Uev1A/Ubc13, in the assay with A549 cells (setting [2]) and in the assay on H1299 cells (setting [3]) was not below 20 µM in each case.

Regarding `Cc1cccc(N2CCN(c3ccc([N+](=O)[O-])c4nonc34)CC2)n1` [compound 162, 4-[4-(6-methylpyridin-2-yl)piperazin-1-yl]-7-nitro-2,1,3-benzoxadiazole], the IC50 against TRAF6/Uev1A/Ubc13, in the assay on A549 cells (setting [4]) and in the assay on H1299 cells (setting [5]) was not below 20 µM throughout.

For the compound `Nc1ccc(N2CCN(c3ncc(C(F)(F)F)cc3Cl)CC2)c2nonc12` [compound 279, 7-{4-[3-chloro-5-(trifluoromethyl)pyridin-2-yl]piperazin-1-yl}-2,1,3-benzoxadiazol-4-amine], the IC50 against TRAF6/Uev1A/Ubc13 was not below 20 µM; with A549 cells (setting [4]), 1 to 20 µM; in the assay on H1299 cells (setting [5]), 1 to 20 µM.

In the case of `O=[N+]([O-])c1ccc(N2CCNCC2)c2nonc12` [compound 112, 4-nitro-7-piperazin-1-yl-2,1,3-benzoxadiazole], the IC50 at TRAF6/Uev1A/Ubc13, in the assay with A549 cells (setting [4]) and in the assay with H1299 cells (setting [5]) was not below 20 µM each time.

In the case of `O=[N+]([O-])c1ccc(N2CCN(CCN3CCOCC3)CC2)c2nonc12` [compound 85, 4-[4-(2-morpholin-4-ylethyl)piperazin-1-yl]-7-nitro-2,1,3-benzoxadiazole], the IC50 against TRAF6/Uev1A/Ubc13, in the assay on A549 cells (setting [4]) and in the assay on H1299 cells (setting [5]) was not below 20 µM in each case.
